In ChEMBL document CHEMBL1129588, “Development of potent thrombin receptor antagonist peptides” (J Med Chem, 1996):
Starred links: 1 amine or outer side, 2 acyl side, 3 side chain; linkers in the order of their positions; H or OH if unused. Non-standard residues stand in square brackets, D forms with d. Residues, ends and D or L forms follow the SMILES beside them. *: point of attachment. X7 = CC(=O)N(C(=O)/C=C/c1ccc(F)cc1)[C@@H](Cc1ccc(F)cc1)C(=O)*; X8 = C#CC(=O)c1cccc(N([C@@H](Cc2ccc(F)cc2)C(=O)[*:2])[*:1])c1; X3 = CC(=O)N(C(=O)/C=C/c1ccccc1)[C@@H](Cc1ccc(F)cc1)C(=O)*; Phe(4-guanidino) = N=C(N)Nc1ccc(C[C@H](N)C(=O)O)cc1

Target: T1, Proteinase-activated receptor 1 (Homo sapiens, UniProt P25116)
T1 sequence (P25116 whole entry): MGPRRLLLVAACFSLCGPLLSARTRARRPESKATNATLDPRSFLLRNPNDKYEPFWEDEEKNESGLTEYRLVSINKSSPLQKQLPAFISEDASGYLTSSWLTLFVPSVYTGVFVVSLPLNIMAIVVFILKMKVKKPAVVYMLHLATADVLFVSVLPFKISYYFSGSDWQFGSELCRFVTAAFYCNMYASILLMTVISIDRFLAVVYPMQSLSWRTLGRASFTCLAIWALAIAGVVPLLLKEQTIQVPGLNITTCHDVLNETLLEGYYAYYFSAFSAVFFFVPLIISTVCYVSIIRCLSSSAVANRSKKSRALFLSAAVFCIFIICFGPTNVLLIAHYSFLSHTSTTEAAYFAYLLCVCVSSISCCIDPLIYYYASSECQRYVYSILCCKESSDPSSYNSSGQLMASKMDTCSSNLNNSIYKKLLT

IC50 [nM]	Structure (SMILES)
40	COc1ccc(/C=C/C(=O)N(C(C)=O)[C@@H](Cc2ccc(F)cc2)C(=O)N[C@@H](Cc2ccc(NC(=N)N)cc2)C(=O)N[C@@H](CC(C)C)C(=O)N[C@@H](CCCN=C(N)N)C(N)=O)cc1
1000	CC(=O)N(C(=O)c1ccccc1N)[C@@H](Cc1ccc(F)cc1)C(=O)N[C@@H](Cc1ccc(NC(=N)N)cc1)C(=O)N[C@@H](CC(C)C)C(=O)N[C@@H](CCCN=C(N)N)C(N)=O
39	CC(=O)N(C(=O)/C=C/c1ccccc1)[C@@H](Cc1ccc(F)cc1)C(=O)N[C@@H](CCCCN)C(=O)N[C@@H](CC(C)C)C(=O)N[C@@H](CCCN=C(N)N)C(N)=O
246	CC(=O)N(C(=O)/C=C/c1ccccc1)[C@@H](Cc1ccc(F)cc1)C(=O)N[C@@H](Cc1ccc2ccccc2c1)C(=O)N[C@@H](CC(C)C)C(=O)N[C@@H](CCCN=C(N)N)C(N)=O
19	CC(=O)N(C(=O)CSc1ccccc1)[C@@H](Cc1ccc(F)cc1)C(=O)N[C@@H](Cc1ccc(NC(=N)N)cc1)C(=O)N[C@@H](CC(C)C)C(=O)N[C@@H](CCCN=C(N)N)C(N)=O
7.8	CC(=O)N(C(=O)/C=C/c1ccccc1)[C@@H](Cc1ccc(F)cc1)C(=O)N[C@@H](Cc1ccc(NC(=N)N)cc1)C(=O)N[C@@H](CC(C)C)C(=O)N[C@@H](CCCN=C(N)N)C(N)=O
4330	CC(=O)N(C(=O)c1cc2ccccc2oc1=O)[C@@H](Cc1ccc(F)cc1)C(=O)N[C@@H](Cc1ccc(NC(=N)N)cc1)C(=O)N[C@@H](CC(C)C)C(=O)N[C@@H](CCCN=C(N)N)C(N)=O
4	C#CC(=O)c1cccc(N(C(C)=O)[C@@H](Cc2ccc(F)cc2)C(=O)N[C@@H](Cc2ccc(NC(=N)N)cc2)C(=O)N[C@@H](CC(C)C)C(=O)N[C@@H](CCCN=C(N)N)C(=O)N[C@@H](CCCN=C(N)N)C(N)=O)c1 (Ac-[X8][Phe(4-guanidino)]LRR-NH2)
43	CC(=O)N(C(=O)/C=C/c1ccc(C)cc1)[C@@H](Cc1ccc(F)cc1)C(=O)N[C@@H](Cc1ccc(NC(=N)N)cc1)C(=O)N[C@@H](CC(C)C)C(=O)N[C@@H](CCCN=C(N)N)C(N)=O (stereo in doubt; 63)
170	CC(C)C[C@H](NC(=O)[C@@H](N)CCCN=C(N)N)C(=O)N[C@@H](CCCN)C(=O)N[C@@H](Cc1ccc(F)cc1)C(=O)NC(=O)/C=C/c1ccccc1
780	CC(=O)N(C(=O)/C=C/c1ccccc1)[C@@H](Cc1ccc(F)cc1)C(=O)N[C@@H](Cc1ccc(NC(=N)N)cc1)C(N)=O
370	CC(=O)N(C(=O)/C=C/c1ccccc1)[C@@H](Cc1ccc(F)cc1)C(=O)N[C@@H](Cc1ccc(N)cc1)C(=O)N[C@@H](CC(C)C)C(=O)N[C@@H](CCCN=C(N)N)C(N)=O
61	CC(=O)N(C(=O)/C=C/c1ccc(N)cc1)[C@@H](Cc1ccc(F)cc1)C(=O)N[C@@H](Cc1ccc(NC(=N)N)cc1)C(=O)N[C@@H](CC(C)C)C(=O)N[C@@H](CCCN=C(N)N)C(N)=O
62	CC(=O)N(C(=O)/C=C/c1ccc(O)cc1)[C@@H](Cc1ccc(F)cc1)C(=O)N[C@@H](Cc1ccc(NC(=N)N)cc1)C(=O)N[C@@H](CC(C)C)C(=O)N[C@@H](CCCN=C(N)N)C(N)=O
4710	CC(=O)N(C(=O)/C=C/c1ccccc1)[C@@H](Cc1ccc(F)cc1)C(=O)N[C@@H](Cc1ccc(Cl)cc1)C(=O)N[C@@H](CC(C)C)C(=O)N[C@@H](CCCN=C(N)N)C(N)=O
110	CC(=O)N(c1cccc(Cl)c1)[C@@H](Cc1ccc(F)cc1)C(=O)N[C@@H](Cc1ccc(NC(=N)N)cc1)C(=O)N[C@@H](CC(C)C)C(=O)N[C@@H](CCCN=C(N)N)C(N)=O
19	CC(=O)N(C(=O)/C=C/c1ccc(F)cc1)[C@@H](Cc1ccc(F)cc1)C(=O)N[C@@H](Cc1ccc(NC(=N)N)cc1)C(=O)N[C@@H](CC(C)C)C(=O)N[C@@H](CCCN=C(N)N)C(=O)N[C@@H](CCCN=C(N)N)C(N)=O (X7-[Phe(4-guanidino)]LRR-NH2)

IC50 [nM]	Structure (SMILES)
7.5	CC(=O)N(C(=O)/C=C/c1ccccc1)[C@@H](Cc1ccc(F)cc1)C(=O)N[C@@H](Cc1ccc(NC(=N)N)cc1)C(=O)N[C@@H](CC(C)C)C(=O)N[C@@H](CCCN=C(N)N)C(=O)N[C@@H](CCCN=C(N)N)C(N)=O (X3-[Phe(4-guanidino)]LRR-NH2)
310	CC(=O)N(c1ccsc1)[C@@H](Cc1ccc(F)cc1)C(=O)N[C@@H](Cc1ccc(NC(=N)N)cc1)C(=O)N[C@@H](CC(C)C)C(=O)N[C@@H](CCCN=C(N)N)C(N)=O
> 30000	CC(=O)N(CC(=O)N[C@@H](Cc1ccc(NC(=N)N)cc1)C(=O)N[C@@H](CC(C)C)C(=O)N[C@@H](CCCN=C(N)N)C(N)=O)C(=O)/C=C/c1ccccc1
21	CC(=O)N(C(=O)COc1ccccc1)[C@@H](Cc1ccc(F)cc1)C(=O)N[C@@H](Cc1ccc(NC(=N)N)cc1)C(=O)N[C@@H](CC(C)C)C(=O)N[C@@H](CCCN=C(N)N)C(N)=O
93	CC(=O)N(C(=O)/C=C/c1ccccc1)[C@@H](CC1CCCCC1)C(=O)N[C@@H](Cc1ccc(NC(=N)N)cc1)C(=O)N[C@@H](CC(C)C)C(=O)N[C@@H](CCCN=C(N)N)C(N)=O
340	CC(=O)N(C(=O)/C=C/c1ccccc1)[C@@H](Cc1ccc(F)cc1)C(=O)N[C@@H](Cc1cccnc1)C(=O)N[C@@H](CC(C)C)C(=O)N[C@@H](CCCN=C(N)N)C(N)=O
1040	CC(=O)N(C(=O)/C=C/c1ccccc1)[C@@H](Cc1ccc(F)cc1)C(=O)NC(=O)NCCC[C@H](NC(=O)[C@H](CC(C)C)NC(=O)[C@@H](N)CCCN=C(N)N)C(=O)O
350	CC(=O)N(c1ccc(F)cc1)[C@@H](Cc1ccc(F)cc1)C(=O)N[C@@H](Cc1ccc(NC(=N)N)cc1)C(=O)N[C@@H](CC(C)C)C(=O)N[C@@H](CCCN=C(N)N)C(N)=O
46	CC(=O)N(C(=O)c1ccc(-c2ccccc2)cc1)[C@@H](Cc1ccc(F)cc1)C(=O)N[C@@H](Cc1ccc(NC(=N)N)cc1)C(=O)N[C@@H](CC(C)C)C(=O)N[C@@H](CCCN=C(N)N)C(N)=O
680	CC(=O)N(c1ccccc1)[C@@H](Cc1ccc(F)cc1)C(=O)N[C@@H](Cc1ccc(NC(=N)N)cc1)C(=O)N[C@@H](CC(C)C)C(=O)N[C@@H](CCCN=C(N)N)C(N)=O
99	CC(=O)N(C(=O)/C=C/c1ccc(Cl)cc1)[C@@H](Cc1ccc(F)cc1)C(=O)N[C@@H](Cc1ccc(NC(=N)N)cc1)C(=O)N[C@@H](CC(C)C)C(=O)N[C@@H](CCCN=C(N)N)C(N)=O
25	CC(=O)N(C(=O)/C=C/c1ccc(F)cc1)[C@@H](Cc1ccc(F)cc1)C(=O)N[C@@H](Cc1ccc(NC(=N)N)cc1)C(=O)N[C@@H](CC(C)C)C(=O)N[C@@H](CCCN=C(N)N)C(=O)N[C@@H](CCCN)C(=O)CC(N)=O
340	CC(=O)N(C(=O)/C=C/c1ccccc1)[C@@H](Cc1ccc(F)cc1)C(=O)N[C@@H](CCN=C(N(C)C)N(C)C)C(=O)N[C@@H](CC(C)C)C(=O)N[C@@H](CCCN=C(N)N)C(N)=O
130	CC(=O)N(C(=O)/C=C/c1ccccc1)[C@@H](Cc1ccc(F)cc1)C(=O)N[C@@H](CCCCN=C(N(C)C)N(C)C)C(=O)N[C@@H](CC(C)C)C(=O)N[C@@H](CCCN=C(N)N)C(N)=O
1180	COc1ccc(C[C@H](NC(=O)[C@H](Cc2ccc(F)cc2)N(C(C)=O)C(=O)/C=C/c2ccccc2)C(=O)N[C@@H](CC(C)C)C(=O)N[C@@H](CCCN=C(N)N)C(N)=O)cc1
44	CC(=O)N(C(=O)/C=C/c1ccccc1)[C@@H](Cc1ccc(F)cc1)C(=O)N[C@@H](Cc1ccc(NC(=N)N)cc1)C(=O)N[C@@H](CC(C)C)C(=O)N[C@@H](CCCN)C(=O)CC(N)=O
